Data as given in patent US20240150360A1 (THE REGENTS OF THE UNIVERSITY OF MICHIGAN, priority 2021, published 2024).

How the values were obtained:
CBP = molecular target: T1, CBP (Homo sapiens, UniProt Q92793); test: CBP degradation in 22Rv1 cells (5 h); type: cell-based; details: 22Rv1 cells, 5 h; for Dmax: 22Rv1, 5 h, read-out: CBP Degradation (22Rv1, 5 h) DCmax
T1 construct: endogenous in cells; host or cells: 22Rv1 (ATCC CRL-2505) human prostate cancer cells
Excerpt: (§1) Biological Assays. […] Cells with 3-8 passages after purchase were used in experiments.

P300 = molecular target: T2, P300 (Homo sapiens, UniProt Q09472); test: P300 degradation in 22Rv1 cells (5 h); type: cell-based; details: 22Rv1 cells, 5 h; for Dmax: read-out: P300 Degradation (22Rv1, 5 h) DCmax
T2 construct: endogenous in cells; host or cells: 22Rv1 (ATCC CRL-2505) human prostate cancer cells
T2 sequence (Q09472 whole entry): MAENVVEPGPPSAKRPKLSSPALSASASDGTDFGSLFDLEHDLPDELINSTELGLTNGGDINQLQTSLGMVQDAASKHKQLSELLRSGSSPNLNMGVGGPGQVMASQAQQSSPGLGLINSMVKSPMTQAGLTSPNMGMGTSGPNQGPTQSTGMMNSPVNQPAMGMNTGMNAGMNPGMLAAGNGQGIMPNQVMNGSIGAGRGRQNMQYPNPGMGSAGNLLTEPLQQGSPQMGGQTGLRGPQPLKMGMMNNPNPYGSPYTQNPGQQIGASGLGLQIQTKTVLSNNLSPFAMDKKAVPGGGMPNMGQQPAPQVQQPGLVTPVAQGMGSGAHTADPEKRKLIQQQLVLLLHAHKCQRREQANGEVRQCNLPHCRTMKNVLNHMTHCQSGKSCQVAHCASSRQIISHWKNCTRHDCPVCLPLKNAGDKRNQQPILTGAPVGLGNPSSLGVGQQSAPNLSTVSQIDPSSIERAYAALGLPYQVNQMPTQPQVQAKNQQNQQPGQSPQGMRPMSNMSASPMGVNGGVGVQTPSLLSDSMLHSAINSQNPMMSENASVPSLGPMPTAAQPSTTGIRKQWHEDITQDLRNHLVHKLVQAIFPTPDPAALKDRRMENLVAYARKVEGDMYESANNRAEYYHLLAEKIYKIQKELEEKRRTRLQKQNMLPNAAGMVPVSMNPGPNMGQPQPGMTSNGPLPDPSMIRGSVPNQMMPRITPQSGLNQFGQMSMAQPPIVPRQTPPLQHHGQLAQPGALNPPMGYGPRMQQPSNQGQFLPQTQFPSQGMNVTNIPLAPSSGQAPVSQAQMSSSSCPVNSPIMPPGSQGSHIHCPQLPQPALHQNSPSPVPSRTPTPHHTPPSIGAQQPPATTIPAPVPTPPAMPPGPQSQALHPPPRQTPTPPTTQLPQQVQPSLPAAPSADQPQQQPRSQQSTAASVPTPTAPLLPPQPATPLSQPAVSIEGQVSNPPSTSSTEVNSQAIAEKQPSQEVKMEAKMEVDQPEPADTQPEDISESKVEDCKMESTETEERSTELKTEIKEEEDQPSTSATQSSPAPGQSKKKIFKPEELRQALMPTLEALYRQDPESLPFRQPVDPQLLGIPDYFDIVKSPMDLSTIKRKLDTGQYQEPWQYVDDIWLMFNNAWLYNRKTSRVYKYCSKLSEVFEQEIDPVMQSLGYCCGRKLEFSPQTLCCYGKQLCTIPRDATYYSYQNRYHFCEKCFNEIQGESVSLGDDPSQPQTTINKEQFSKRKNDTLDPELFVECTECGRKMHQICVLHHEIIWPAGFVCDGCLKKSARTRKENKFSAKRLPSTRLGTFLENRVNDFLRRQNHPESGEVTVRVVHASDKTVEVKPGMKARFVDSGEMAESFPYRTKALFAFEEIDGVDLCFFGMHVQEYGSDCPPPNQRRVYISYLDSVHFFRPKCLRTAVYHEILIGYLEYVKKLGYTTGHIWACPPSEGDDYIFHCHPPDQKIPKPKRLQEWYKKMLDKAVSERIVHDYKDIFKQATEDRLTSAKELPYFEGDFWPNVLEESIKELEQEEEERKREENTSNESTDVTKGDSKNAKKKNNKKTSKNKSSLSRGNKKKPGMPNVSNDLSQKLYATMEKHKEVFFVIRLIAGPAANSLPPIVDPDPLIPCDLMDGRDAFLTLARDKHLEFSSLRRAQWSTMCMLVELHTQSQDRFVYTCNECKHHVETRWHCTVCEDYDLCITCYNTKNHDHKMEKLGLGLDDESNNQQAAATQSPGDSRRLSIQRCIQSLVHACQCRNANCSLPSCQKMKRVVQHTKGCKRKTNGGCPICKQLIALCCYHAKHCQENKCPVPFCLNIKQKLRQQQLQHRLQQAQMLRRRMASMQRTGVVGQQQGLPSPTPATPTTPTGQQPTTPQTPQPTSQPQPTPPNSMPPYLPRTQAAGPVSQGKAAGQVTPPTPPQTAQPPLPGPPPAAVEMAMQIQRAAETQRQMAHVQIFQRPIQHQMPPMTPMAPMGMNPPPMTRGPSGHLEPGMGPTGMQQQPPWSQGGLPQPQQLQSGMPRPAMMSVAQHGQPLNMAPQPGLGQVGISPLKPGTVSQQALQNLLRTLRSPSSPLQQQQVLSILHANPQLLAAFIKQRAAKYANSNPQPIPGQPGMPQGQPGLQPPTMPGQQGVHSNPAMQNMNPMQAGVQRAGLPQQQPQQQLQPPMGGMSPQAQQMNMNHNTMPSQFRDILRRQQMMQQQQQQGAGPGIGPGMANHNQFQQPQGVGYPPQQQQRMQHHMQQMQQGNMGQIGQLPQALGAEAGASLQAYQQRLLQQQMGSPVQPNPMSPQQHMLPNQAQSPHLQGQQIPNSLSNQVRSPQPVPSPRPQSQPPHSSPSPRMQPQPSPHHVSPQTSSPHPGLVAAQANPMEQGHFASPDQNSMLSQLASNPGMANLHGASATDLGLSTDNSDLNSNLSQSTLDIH
Excerpt: as §1

22Rv1 cells = test: Cell growth inhibition assay (CellTiter-Glo) in 22Rv1; type: cell-based, human; details: Homo sapiens, 22Rv1, 96 h, 22Rv1 cells, 96 h incubation; read-out: Cell Growth Inhibition (IC50) 22Rv1
How it was run: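 22Rv1 prostate cancer cells (passages 3-8, DMEM with 10% FBS) were seeded at 4000 cells/well with compound, 3-fold dilutions from 10 μM final. After 96 h at 37° C and 5% CO2, growth was read by CellTiter-Glo 2.0 luminescence.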

HL60 = test: Cell growth inhibition in HL60; type: cell-based; details: Homo sapiens, HL-60, HL60 cells; read-out: Cell Growth Inhibition (IC50) HL60

T1 sequence (Q92793 whole entry): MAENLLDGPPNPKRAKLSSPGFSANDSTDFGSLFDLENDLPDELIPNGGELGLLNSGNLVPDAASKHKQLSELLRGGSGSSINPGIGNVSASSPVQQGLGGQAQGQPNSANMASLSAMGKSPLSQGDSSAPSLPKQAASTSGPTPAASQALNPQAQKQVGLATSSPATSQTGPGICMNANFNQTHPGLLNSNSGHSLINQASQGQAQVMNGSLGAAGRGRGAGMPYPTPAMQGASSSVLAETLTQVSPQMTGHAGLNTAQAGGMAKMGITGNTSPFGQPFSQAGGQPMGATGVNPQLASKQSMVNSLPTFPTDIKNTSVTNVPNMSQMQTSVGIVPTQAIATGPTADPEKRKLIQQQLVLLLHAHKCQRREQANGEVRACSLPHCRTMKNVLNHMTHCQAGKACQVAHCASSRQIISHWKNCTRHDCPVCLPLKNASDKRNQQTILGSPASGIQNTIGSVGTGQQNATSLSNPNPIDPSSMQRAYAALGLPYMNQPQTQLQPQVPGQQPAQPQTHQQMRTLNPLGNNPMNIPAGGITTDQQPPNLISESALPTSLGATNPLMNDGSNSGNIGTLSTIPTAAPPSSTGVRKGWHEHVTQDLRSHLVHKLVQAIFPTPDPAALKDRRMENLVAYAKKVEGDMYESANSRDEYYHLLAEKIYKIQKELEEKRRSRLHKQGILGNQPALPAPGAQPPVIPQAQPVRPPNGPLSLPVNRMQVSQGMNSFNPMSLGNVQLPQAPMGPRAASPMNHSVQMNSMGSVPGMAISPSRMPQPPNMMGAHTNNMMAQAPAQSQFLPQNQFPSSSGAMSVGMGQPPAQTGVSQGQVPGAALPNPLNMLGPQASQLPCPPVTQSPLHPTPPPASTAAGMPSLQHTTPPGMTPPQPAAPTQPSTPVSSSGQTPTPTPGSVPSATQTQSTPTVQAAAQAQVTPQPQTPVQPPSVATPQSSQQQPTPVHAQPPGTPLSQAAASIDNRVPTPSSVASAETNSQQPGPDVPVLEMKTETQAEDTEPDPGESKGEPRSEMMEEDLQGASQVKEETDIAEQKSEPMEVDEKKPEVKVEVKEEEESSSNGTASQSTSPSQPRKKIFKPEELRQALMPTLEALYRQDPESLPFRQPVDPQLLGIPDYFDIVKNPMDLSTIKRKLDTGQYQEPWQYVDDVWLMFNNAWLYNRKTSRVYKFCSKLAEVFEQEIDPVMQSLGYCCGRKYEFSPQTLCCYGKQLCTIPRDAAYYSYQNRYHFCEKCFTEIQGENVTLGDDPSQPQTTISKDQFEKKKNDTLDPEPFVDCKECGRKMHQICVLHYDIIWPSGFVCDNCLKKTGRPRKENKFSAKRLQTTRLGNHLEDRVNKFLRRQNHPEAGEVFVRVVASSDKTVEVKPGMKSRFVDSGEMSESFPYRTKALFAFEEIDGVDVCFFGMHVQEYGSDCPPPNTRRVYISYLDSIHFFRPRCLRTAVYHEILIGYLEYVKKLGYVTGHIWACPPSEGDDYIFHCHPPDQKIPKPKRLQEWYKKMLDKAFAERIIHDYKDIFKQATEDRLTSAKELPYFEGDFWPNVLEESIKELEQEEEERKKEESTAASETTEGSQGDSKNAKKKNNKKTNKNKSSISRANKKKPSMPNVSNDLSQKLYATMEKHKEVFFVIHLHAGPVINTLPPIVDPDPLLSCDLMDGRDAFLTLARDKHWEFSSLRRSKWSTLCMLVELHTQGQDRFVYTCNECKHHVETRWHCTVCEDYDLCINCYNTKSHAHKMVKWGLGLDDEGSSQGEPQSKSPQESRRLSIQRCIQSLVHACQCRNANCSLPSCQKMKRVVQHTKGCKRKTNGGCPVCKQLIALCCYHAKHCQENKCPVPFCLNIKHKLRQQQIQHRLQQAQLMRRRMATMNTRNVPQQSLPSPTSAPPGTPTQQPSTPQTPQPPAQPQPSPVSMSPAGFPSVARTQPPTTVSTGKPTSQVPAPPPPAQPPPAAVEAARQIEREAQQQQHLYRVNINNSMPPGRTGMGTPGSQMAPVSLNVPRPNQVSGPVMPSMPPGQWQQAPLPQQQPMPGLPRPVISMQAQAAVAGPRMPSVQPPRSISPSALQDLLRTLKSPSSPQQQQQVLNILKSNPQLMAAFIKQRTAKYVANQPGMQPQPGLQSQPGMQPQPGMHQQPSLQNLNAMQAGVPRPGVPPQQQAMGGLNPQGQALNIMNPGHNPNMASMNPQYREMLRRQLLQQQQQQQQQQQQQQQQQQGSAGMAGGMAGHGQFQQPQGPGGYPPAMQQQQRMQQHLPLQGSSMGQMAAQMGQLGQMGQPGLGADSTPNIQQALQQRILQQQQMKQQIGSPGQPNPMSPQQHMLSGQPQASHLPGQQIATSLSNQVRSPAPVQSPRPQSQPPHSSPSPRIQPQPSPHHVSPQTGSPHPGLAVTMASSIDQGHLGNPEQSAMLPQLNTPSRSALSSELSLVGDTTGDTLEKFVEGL

SMILES	Dmax (CBP) [%]	DC50 (CBP) [µM]	DC50 (P300) [µM]	Dmax (P300) [%]	IC50 (22Rv1 cells) [µM]	IC50 (HL60) [µM]
CC(=O)N1CCc2c(c(N3CCCc4cc(C(C)C)c(C(F)F)cc43)nn2C2CCN(C(=O)CN3Cc4cc5c(cc4C3)C(=O)N(C3CCC(=O)NC3=O)C5=O)CC2)C1 (stereo not drawn) [CP-015, 6-(2-(4-(5-acetyl-3-(7-(difluoromethyl)-6-isopropyl-3,4-dihydroquinolin-1(2H)-yl)-4,5,6,7-tetrahydro-1H-pyrazolo[4,3-c]pyridin-1-yl)piperidin-1-yl)-2-oxoethyl)-2-(2,6-dioxopiperidin-3-yl)-6,7-dihydropyrrolo[3,4-f]isoindole-1,3(2H,5H)-dione]	> 90	< 0.01	< 0.01	> 70	< 1	< 0.1
CCc1cc2c(cc1C(F)F)N(c1nn(C3CCN(C(=O)CN4Cc5cc6c(cc5C4)C(=O)N(C4CCC(=O)NC4=O)C6=O)CC3)c3c1CN(C(C)=O)CC3)CCC2 (stereo not drawn) [CP-012, 6-(2-(4-(5-acetyl-3-(7-(difluoromethyl)-6-ethyl-3,4-dihydroquinolin-1(2H)-yl)-4,5,6,7-tetrahydro-1H-pyrazolo[4,3-c]pyridin-1-yl)piperidin-1-yl)-2-oxoethyl)-2-(2,6-dioxopiperidin-3-yl)-6,7-dihydropyrrolo[3,4-f]isoindole-1,3(2H,5H)-dione]	> 90	< 0.01	< 0.01	> 70	< 1	< 0.1
CC(=O)N1CCc2c(c(N3CCCc4cc5c(cc43)C(C)(C)CCC5)nn2C2CCN(C(=O)CN3Cc4cc5c(cc4C3)C(=O)N(C3CCC(=O)NC3=O)C5=O)CC2)C1 (stereo not drawn) [CP-083, 6-(2-(4-(5-acetyl-3-(9,9-dimethyl-3,4,6,7,8,9-hexahydrobenzo[g]quinolin-1(2H)-yl)-4,5,6,7-tetrahydro-1H-pyrazolo[4,3-c]pyridin-1-yl)piperidin-1-yl)-2-oxoethyl)-2-(2,6-dioxopiperidin-3-yl)-6,7-dihydropyrrolo[3,4-f]isoindole-1,3(2H,5H)-dione]	< 50	> 1	> 1	< 50	> 10	> 10
CC(=O)N1CCc2c(c(N3CCCc4cc(-c5cnn(C)c5)c(C(F)F)cc43)nn2[C@H]2CC[C@H](CN3CCc4cc5c(cc4C3)C(=O)N(C3CCC(=O)NC3=O)C5=O)CC2)C1 (stereo partly drawn) [CP-049, 6-((4-(5-acetyl-3-(7-(difluoromethyl)-6-(1-methyl-1H-pyrazol-4-yl)-3,4-dihydroquinolin-1(2H)-yl)-4,5,6,7-tetrahydro-1H-pyrazolo[4,3-c]pyridin-1-yl)cyclohexyl)methyl)-2-(2,6-dioxopiperidin-3-yl)-5,6,7,8-tetrahydro-1H-pyrrolo[3,4-g]isoquinoline-1,3(2H)-dione]	> 90	< 0.01	< 0.01	> 70	< 0.1	< 0.1
CC(=O)N1CCc2c(c(N3CCCc4cc(-c5cnn(C)c5)c(C(F)F)cc43)nn2C2CCC(CCN3CCc4cc5c(cc4C3)C(=O)N(C3CCC(=O)NC3=O)C5=O)CC2)C1 (stereo not drawn) [CP-045, 6-(2-(4-(5-acetyl-3-(7-(difluoromethyl)-6-(1-methyl-1H-pyrazol-4-yl)-3,4-dihydroquinolin-1(2H)-yl)-4,5,6,7-tetrahydro-1H-pyrazolo[4,3-c]pyridin-1-yl)cyclohexyl)ethyl)-2-(2,6-dioxopiperidin-3-yl)-5,6,7,8-tetrahydro-1H-pyrrolo[3,4-g]isoquinoline-1,3(2H)-dione]	> 90	< 0.01	< 0.01	> 70	< 0.1	< 0.1
CC(=O)N1CCc2c(c(N3CCCc4cc(-c5cnn(C)c5)c(C(F)F)cc43)nn2C2CCC(N3CCc4cc5c(cc4C3)C(=O)N(C3CCC(=O)NC3=O)C5=O)CC2)C1 (stereo not drawn) [CP-038, 6-(4-(5-acetyl-3-(7-(difluoromethyl)-6-(1-methyl-1H-pyrazol-4-yl)-3,4-dihydroquinolin-1(2H)-yl)-4,5,6,7-tetrahydro-1H-pyrazolo[4,3-c]pyridin-1-yl)cyclohexyl)-2-(2,6-dioxopiperidin-3-yl)-5,6,7,8-tetrahydro-1H-pyrrolo[3,4-g]isoquinoline-1,3(2H)-dione]	> 90	< 0.01	< 0.01	> 90	< 0.1	< 0.1
Cn1cc(-c2cc3c(cc2C(F)F)N(c2nn(C4CCN(C(=O)CN5Cc6cc7c(cc6C5)C(=O)N(C5CCC(=O)NC5=O)C7=O)CC4)c4c2CN(CC(C)(F)F)CC4)CCC3)cn1 (stereo not drawn) [CP-059, 6-(2-(4-(3-(7-(difluoromethyl)-6-(1-methyl-1H-pyrazol-4-yl)-3,4-dihydroquinolin-1(2H)-yl)-5-(2,2-difluoropropyl)-4,5,6,7-tetrahydro-1H-pyrazolo[4,3-c]pyridin-1-yl)piperidin-1-yl)-2-oxoethyl)-2-(2,6-dioxopiperidin-3-yl)-6,7-dihydropyrrolo[3,4-f]isoindole-1,3(2H,5H)-dione]	< 50	> 1	> 1	< 50	> 10	< 10
CC(=O)N1CCc2c(c(N3CCCc4cc5c(cc43)CCCC5)nn2C2CCN(C(=O)CN3CCc4cc5c(cc4C3)C(=O)N(C3CCC(=O)NC3=O)C5=O)CC2)C1 (stereo not drawn) [CP-078, 6-(2-(4-(5-acetyl-3-(3,4,6,7,8,9-hexahydrobenzo[g]quinolin-1(2H)-yl)-4,5,6,7-tetrahydro-1H-pyrazolo[4,3-c]pyridin-1-yl)piperidin-1-yl)-2-oxoethyl)-2-(2,6-dioxopiperidin-3-yl)-5,6,7,8-tetrahydro-1H-pyrrolo[3,4-g]isoquinoline-1,3(2H)-dione]	> 90	< 0.01	< 0.01	> 70	< 1	< 1
CC(=O)N1CCc2c(c(N3CCCc4cc(Br)c(C(F)F)cc43)nn2C2CCN(C(=O)CN3Cc4cc5c(cc4C3)C(=O)N(C3CCC(=O)NC3=O)C5=O)CC2)C1 (stereo not drawn) [CP-016, 6-(2-(4-(5-acetyl-3-(6-bromo-7-(difluoromethyl)-3,4-dihydroquinolin-1(2H)-yl)-4,5,6,7-tetrahydro-1H-pyrazolo[4,3-c]pyridin-1-yl)piperidin-1-yl)-2-oxoethyl)-2-(2,6-dioxopiperidin-3-yl)-6,7-dihydropyrrolo[3,4-f]isoindole-1,3(2H,5H)-dione]	< 50	> 1	> 1	< 50	< 1	< 0.1
CC(=O)c1cc2c(cc1C(F)F)N(c1nn(C3CCN(C(=O)CN4Cc5cc6c(cc5C4)C(=O)N(C4CCC(=O)NC4=O)C6=O)CC3)c3c1CN(C(C)=O)CC3)CCC2 (stereo not drawn) [CP-019, 6-(2-(4-(5-acetyl-3-(6-acetyl-7-(difluoromethyl)-3,4-dihydroquinolin-1(2H)-yl)-4,5,6,7-tetrahydro-1H-pyrazolo[4,3-c]pyridin-1-yl)piperidin-1-yl)-2-oxoethyl)-2-(2,6-dioxopiperidin-3-yl)-6,7-dihydropyrrolo[3,4-f]isoindole-1,3(2H,5H)-dione]	< 50	> 1	> 1	< 50	> 10	< 1
CC(=O)N1CCc2c(c(-c3cccc4ccncc34)nn2C2CCN(C(=O)CN3Cc4cc5c(cc4C3)C(=O)N(C3CCC(=O)NC3=O)C5=O)CC2)C1 (stereo not drawn) [CP-082, 6-(2-(4-(5-acetyl-3-(isoquinolin-8-yl)-4,5,6,7-tetrahydro-1H-pyrazolo[4,3-c]pyridin-1-yl)piperidin-1-yl)-2-oxoethyl)-2-(2,6-dioxopiperidin-3-yl)-6,7-dihydropyrrolo[3,4-f]isoindole-1,3(2H,5H)-dione]	< 50	> 1	> 1	< 50	> 10	> 10
CC(=O)N1CCc2c(c(N3CCCc4cc(-c5cnn(C)c5)c(C(F)F)cc43)nn2[C@H]2CC[C@H](CN3Cc4cc5c(cc4C3)C(=O)N(C3CCC(=O)NC3=O)C5)CC2)C1 (stereo partly drawn) [CP-048, 3-(6-(((1r,4r)-4-(5-acetyl-3-(7-(difluoromethyl)-6-(1-methyl-1H-pyrazol-4-yl)-3,4-dihydroquinolin-1(2H)-yl)-4,5,6,7-tetrahydro-1H-pyrazolo[4,3-c]pyridin-1-yl)cyclohexyl)methyl)-1-oxo-3,5,6,7-tetrahydropyrrolo[3,4-f]isoindol-2(1H)-yl)piperidine-2,6-dione]	> 90	< 0.01	< 0.01	> 90	< 0.1	< 0.1
Cn1cc(-c2cc3c(cc2C(F)F)N(c2nn(C4CCN(C(=O)CN5Cc6cc7c(cc6C5)C(=O)N(C5CCC(=O)NC5=O)C7=O)CC4)c4c2CNCC4)CCC3)cn1 (stereo not drawn) [CP-057, 6-(2-(4-(3-(7-(difluoromethyl)-6-(1-methyl-1H-pyrazol-4-yl)-3,4-dihydroquinolin-1(2H)-yl)-4,5,6,7-tetrahydro-1H-pyrazolo[4,3-c]pyridin-1-yl)piperidin-1-yl)-2-oxoethyl)-2-(2,6-dioxopiperidin-3-yl)-6,7-dihydropyrrolo[3,4-f]isoindole-1,3(2H,5H)-dione]	< 50	> 1	> 1	< 50	> 10	> 10
